The values below come from patent US12569482B2, “Methods and compositions for treating idiopathic pulmonary fibrosis” (priority 2018, dated 2026).

Read-outs that look alike come from different tables or passages of the source.

What all share (type): in vivo, C57BL/6 mice
Data set [1] concerns bleomycin-induced lung fibrosis. In words: Bleomycin induced IPF mouse model, Example 1 (oral nintedanib or fluconazole). The conditions noted are these: nintedanib 60 mg/kg. The protocol:
Forty male C57BL/6 mice (Nanjing Biomedical Research Institute of Nanjing University) were randomly divided into two groups on Day 1, 10 animals for one group (referred to as Control group or Group 1) and 30 for the other. The animals in the Control group were administered intratracheally with PBS at a dose of 2 mL/kg while the others were administered intratracheally with bleomycin (Cat #HY-17565, MCE) at a dose of 0.66 mg/kg.
On Day 5, the mice with bleomycin treatment were divided into three groups at random (referred to as Group 2-4, n=10), and orally administered with vehicle (0.5% Methyl cellulose), nintedanib (Kangmanlin Co. Ltd., prepared in 0.5% Methyl cellulose with a final concentration of 6.0 mg/mL) and fluconazole (Kangmanlin Co. Ltd., prepared in 0.5% Methyl cellulose with a final concentration of 7.0 mg/mL) at daily doses of 10 mL/kg, 60 mg/kg and 70 mg/kg, respectively. The mice in the Control group was administered with vehicle (0.5% Methyl cellulose) at a daily dose of 10 mL/kg. Mice body weights were measured and recorded on Day 1, 5, 12, 19 and 25.
Two hours post drug administration on Day 25, all animals were anaesthetized with pentobarbital (i.p., 65 mg/kg). Blood samples were collected from orbital vein, put in tubes pre-coated with EDTA-K2 (KANG JIAN, Cat #KJ202), centrifuged at 4000×g for 10 minutes at 4° C. and then stored at −80° C. for determination of plasma drug levels. Then, the trachea was exposed, and bronchoalveolar lavage fluid (BALF) was collected from each mouse by injecting 0.3 mL of saline into trachea close to the larynx for three times. After BALF collection, mice were perfused with saline, and all four lung lobes were collected from each mouse, fixed in 10% NBF solution, embedded in paraffin and cut into 5 μm-thick sections. The sections were de-paraffinized with xylene and ethanol and subject to Haematoxylin-Eosin, Masson Trichrome and α-SMA IHC staining.
The bronchoalveolar lavage fluid of 20 μL was mixed with 20 μL of trypan blue to determine the cell number. Then, the cells in the BALF were concentrated using a Cytospinat at 1,000 rpm for 5 minutes, smeared on slides and then stained with Diff-Quik stain. Cell types (alveolar macrophages, neutrophils, or lymphocytes) were determined by counting at least 200 cells using a standard hemocytometer. The rest BALFs were centrifuged and supernatants were collected and stored at −80° C. for soluble collagen analysis.
The Haematoxylin-Eosin staining was used to identify and quantitate the inflammatory cells in the tissues, and the total inflammation area was calculated using the AperioScanScope software.
The sections with Masson Trichrome staining were scored for pulmonary fibrosis according to the modified Ashcroft fibrosis rating criteria in Table 1 below. Each lung lobe was divided into 4 parts according to the distance from the main bronchus, i.e., the upper, upper middle, lower middle and lower parts, which were scored separately and averaged later.
α-SMA is a well characterized marker in fibrosis. Immunohistochemistry staining of α-SMA is often used to characterize and quantitate the tissue fibrosis. Increased staining of α-SMA often reflects accumulation of collagen-producing myofibroblasts. Before α-SMA IHC staining, the de-paraffinized sections were treated with citrate antigen retrieval solution (0.01 N citrate buffer, pH 6.0) at 100° C. for 10 minutes, and then incubated with rabbit polyclonal anti-α-SMA (1:400, ab5694, Abcam) for 1 hour followed by goat anti-rabbit HRP (K4003, Dako). DAB substrate kit (DAB0031, Maixin, Shanghai) was used for chromogenic staining. All sections were further counter-stained with hematoxylin. […] α-SMA staining areas were calculated using the AperioImageScope program.
Statistical analysis was performed using student's T-test, one-way or two-way ANOVA followed by post-hoc Dunnett's test if significant. […] The difference was considered significant when p<0.05. *p<0.05, **p<0.01, ***[…].

Data set [2] shares this test system. Put plainly: Bleomycin induced IPF mouse model, Example 2 (oral itraconazole, nintedanib or combination). On the procedure: The animals in the Control group were administered intratracheally with PBS at a dose of 2 mL/kg while the others were administered intratracheally with bleomycin (Cat #HY-17565, MCE) at a dose of 0.66 mg/kg. On Day 5, the mice with bleomycin treatment were divided into four groups at random (referred to as Group 2-5, n=10), and orally administered with vehicle (DMSO: PEG400=1:[…]), itraconazole ([…] Co. Ltd. prepared in DMSO/PEG400 with a final concentration of 1.5 mg/mL), nintedanib ([…] Co. […] The mice in the Control group was administered with vehicle (DMSO/PEG400) at a daily dose of 10 mL/kg. Mice body weights were measured and recorded on Day 1, 5, 12, 19 and 21.

Data set [3] in a line: Plasma drug levels, Example 2. As to conditions: C57BL/6, mouse. On the procedure:
On Day 5, the mice with bleomycin treatment were divided into four groups at random (referred to as Group 2-5, n=10), and orally administered with vehicle (DMSO: PEG400=1:9, V/V), itraconazole (Kangmanlin Co. Ltd. prepared in DMSO/PEG400 with a final concentration of 1.5 mg/mL), nintedanib (Kangmanlin Co. Ltd., prepared in DMSO/PEG400 with a final concentration of 6.0 mg/mL), and itraconazole+nintedanib (prepared in DMSO/PEG400 with final concentrations of 1.5 mg/mL and 6.0 mg/mL) at daily doses of 10 mL/kg, 15 mg/kg, 60 mg/kg and 15+60 mg/kg, respectively. The mice in the Control group was administered with vehicle (DMSO/PEG400) at a daily dose of 10 mL/kg. Mice body weights were measured and recorded on Day 1, 5, 12, 19 and 21.
Two hours post drug administration on Day 21, all animals were anaesthetized with pentobarbital (i.p., 60 mg/kg). Blood sample, bronchoalveolar lavage fluid (BALF) and lung lobes were collected from each mouse and then processed following the protocols in Example 1.

Where [4] appears, read: compared to model group, 15 mg/kg, 60 mg/kg, 15+60 mg/kg p.o. daily.

For the compound `COC(=O)c1ccc2c(c1)NC(=O)/C2=C(\Nc1ccc(N(C)C(=O)CN2CCN(C)CC2)cc1)c1ccccc1` [nintedanib], the “reduction of lung inflammation area” value in data set [1] (Haematoxylin-Eosin staining, fluconazole 70 mg/kg p.o. daily) is 84%. For the same compound, the “reduction of modified Ashcroft score” value in data set [1] (Masson Trichrome staining, fluconazole 70 mg/kg p.o. daily) is reported as 39%. The “anti-IPF activities / fibrosis related endpoint measurements (overall)” value in data set [1] (fluconazole 70 mg/kg daily dose) is given as “efficacious”. Also, in data set [1] (oral daily Day 5-25), the “total cell number and macrophage/monocyte number in BALF” value is “reduced cell number to some extent”. The BALF collagen levels entry in data set [1] (oral daily Day 5-25, fluconazole 70 mg/kg, vs bleomycin + vehicle) was “significantly reduced collagen levels”. Also, the “reduction of α-SMA staining area” value in data set [1] (α-SMA IHC, fluconazole 70 mg/kg p.o. daily) turned out to be 39%. Further, in data set [2] (setting [4]), the BALF collagen level result is reported as “reduced”, the BALF neutrophil number result is “reduced”, the lung inflammation area entry is on record as “significantly reduced” and the “modified Ashcroft score” value was “significantly reduced”. Moreover, in data set [2] (setting [4]), the α-SMA staining area entry is recorded as “significantly reduced”. In addition, the mice body weight entry in data set [2] (itraconazole 15 mg/kg, nintedanib 60 mg/kg, 15+60 mg/kg p.o. daily Day 5-21) is “inhibited bleomycin-induced body weight reduction to some extent”. Further, the concentration at 2 h in data set [3] (oral, Day 21, itraconazole 15 mg/kg, nintedanib 60 mg/kg p.o. daily, read-out: two-hour post dosing plasma level, single agent) came to 310 ng/mL. Moreover, the concentration at 2 h in data set [3] (po, Day 21, 15+60 mg/kg p.o. daily, read-out: two-hour post dosing plasma drug level, itraconazole and nintedanib combined in administration) was 397 ng/mL.
